The source of these data is the RepoRT retention time repository (doi:10.1016/j.jhazmat.2019.121712).

The nature of the series: Thermo Scientific Acclaim RSLC 120 C18, 100 × 2.1 mm, 2.2 µm, 30 °C; A: 90% water + 10% methanol + 0.01% formic acid + 5 mM ammonium formate; B: methanol + 0.01% formic acid + 5 mM ammonium formate; gradient (min/%B) 0.1/1 3/39 14/99.9 16/99.9. The note with it: stereoisomer not certain.
In the case of `CCNC(=O)c1ccc(OC)cc1`, the LC retention time was found to be 5.59 min.
As for `CCCCCCn1cc(C(=O)c2cccc3ccccc23)cc1-c1ccccc1`, the LC retention time was 13.3 min.
As for `CCCOP(=O)(OCCC)Oc1ccc(SC)cc1`, the LC retention time was found to be 10.8 min.
As to `CC(=O)Oc1ccc2c3c1OC1C(OC(C)=O)C=CC4C(C2)N(C)CCC341` (stereo unspecified), the LC retention time is 4.63 min.
Consider `CCc1cc2c(cc1CC)CC(NCC(O)c1ccc(O)c3[nH]c(=O)ccc13)C2` (stereo unspecified), for which the LC retention time is 7.9 min.
Take `CCCCCn1cc(C(=O)c2ccc(OC)cc2)c2ccccc21`: the LC retention time was determined as 11.8 min.
The result for `CCCCCn1cc(C(=O)NC(C(N)=O)C(C)(C)C)c2ccccc21` (stereo unspecified) reads 11.1 min; that for `CCOc1ccc(NC(C)=O)cc1`, 5.93 min; that for `CC(=O)c1cc2cccc(OCC(O)CNC(C)C)c2o1` (stereo unspecified), 4.93 min.
Regarding `CCCCCCOC(=O)NC(=N)c1ccc(NCc2nc3cc(C(=O)N(CCC(=O)OCC)c4ccccn4)ccc3n2C)cc1`, the LC retention time worked out at 9.29 min.
The result for `O=C(C1CCCCC1)N1CC(=O)N2CCc3ccccc3C2C1` (stereo unspecified) reads 9.32 min; that for `CC12CCC3C4CCC(=O)C=C4CCC3C1CCC2O` (stereo unspecified), 9.37 min.
As for `NNC(=O)c1ccncc1`, the LC retention time worked out at 2.18 min.
Regarding `OCC(O)CN1CCN(c2ccccc2)CC1` (stereo unspecified), the LC retention time is 3.79 min.
For `CN1CCC23c4c5ccc(OCCN6CCOCC6)c4OC2C(O)C=CC3C1C5` (stereo unspecified), the LC retention time stood at 2.73 min.
The result for `C#CC[N+](C)([O-])C(C)Cc1ccccc1` (stereo unspecified) reads 5.33 min; that for `CNC(C)Cc1ccc2c(c1)OCO2` (stereo unspecified), 4.18 min.
On to `CC(C)N(C(=O)C(=O)O)c1ccccc1`, for which the LC retention time stood at 5.13 min.
With `COc1ccccc1OCC(O)COC(N)=O` (stereo unspecified) the figure was 5.21 min.
With `CCc1cc2c(s1)-n1c(C)nnc1CN=C2c1ccccc1` the figure was 8.43 min; with `COc1cc2c(cc1OC)CC(=O)N(CCCN(C)CC1Cc3cc(OC)c(OC)cc31)CC2` (stereo unspecified), 5.02 min.
On to `CC(N)C(=O)c1ccccc1` (stereo unspecified), for which the LC retention time came out at 3.59 min.
With `CCCOC(=O)NCCCN(C)C` the figure was 3.5 min.
On to `CC12C=CC(=O)C=C1CCC1C2C(=O)CC2(C)C1CCC2(O)C(=O)CO` (stereo unspecified), for which the LC retention time came out at 7.85 min.
Consider `CCOC(=O)CC(SP(=S)(OC)OC)C(=O)OCC` (stereo unspecified), for which the LC retention time turned out to be 9.59 min.
In the case of `CCCc1nn(C)c2c(=O)[nH]c(-c3cc(C(=O)CN4CCCCC4)ccc3OCC)nc12`, the LC retention time was found to be 7.14 min.
The result for `Cc1cccc(Nc2ccncc2S(=O)(=O)NC(=O)NC(C)C)c1` reads 6.67 min.
With `CN1CCC23c4c5ccc(OC6OC(C(=O)O)C(O)C(O)C6O)c4OC2C(O)C=CC3C1C5` (stereo unspecified) the figure was 1.63 min; with `CCOC(=O)CSc1nc(C(C)(C)C)nn1C(=O)N(C)C`, 6.38 min; with `CCOP(=S)(Oc1cnc(C(C)(C)C)nc1)OC(C)C` (stereo unspecified), 12.3 min.
With `CCSC(=O)N(CC(C)C)CC(C)C` the figure was 12 min.
As for `CCNC(=O)NC(=O)C(C#N)=NOC`, the LC retention time came out at 5.6 min.
Take `CC(C(=O)c1ccc2c(c1)OCO2)N(C)C` (stereo unspecified): the LC retention time was 3.78 min.
With `CC1(C)C(C(=O)c2cn(CCN3CCOCC3)c3ccccc23)C1(C)C` the figure was 10.7 min; with `CN(C)CCN(Cc1ccccc1)c1ccccn1`, 5.86 min; with `COC1CC(CC2CCC(C)C(C(C)C(=O)O)O2)OC2(OC(C)(C3CCC(C)(C4OC(C5OC(O)(CO)C(C)CC5C)CC4C)O3)CC2C)C1C` (stereo unspecified), 13.9 min.
In the case of `CC(C)(N)Cc1ccccc1`, the LC retention time is 4.64 min.
Consider `CCCN(CCC)c1c([N+](=O)[O-])cc(C(C)C)cc1[N+](=O)[O-]`, for which the LC retention time stood at 13.2 min.
With `CNC(=O)ON=C(C)SC` the figure was 4.16 min; with `COc1ccc(CCN(C)CCCC(C#N)(c2cc(OC)c(OC)c(OC)c2)C(C)C)cc1OC` (stereo unspecified), 7.19 min.
With `COc1ccc2[nH]cc(CCN(C)C)c2c1` the figure was 3.98 min; with `CCN(CC)C(=O)C1C=C2c3cccc4c3C(O)(CC2N(C)C1)C(=O)N4` (stereo unspecified), 4.23 min; with `COC(=O)C1=C(C)NC(C)=C(C(=O)OC(C)(C)CN(C)CCC(c2ccccc2)c2ccccc2)C1c1cccc([N+](=O)[O-])c1` (stereo unspecified), 11.1 min.
The result for `CCSC(=O)N1CCCCCC1` reads 9.89 min; that for `Cc1ccnc(NS(=O)(=O)c2ccc(N)cc2)n1`, 3.95 min; that for `O=C(Nc1cccc(C2=NCCN2)c1)Nc1cccc(C2=NCCN2)c1`, 3.78 min.
With `COc1ccc2[nH]cc(CCN)c2c1`, the LC retention time is 4.01 min.
With `COc1ccccc1OCCNCC(O)COc1cccc2[nH]c3ccccc3c12` (stereo unspecified) the figure was 6.91 min.
Take `CC(C)(C)NCC(O)COc1ccccc1C1CCCC1` (stereo unspecified): the LC retention time was 9.01 min.
With `CCC1(c2ccc(N)cc2)CCC(=O)NC1=O` (stereo unspecified) the figure was 4.99 min.
For the compound `CCCc1nn(C)c2c(=O)[nH]c(-c3cc(C(=O)CN4CCN(CCO)CC4)ccc3OCC)nc12`, the LC retention time is 6.94 min.
With `CCCCC(CC)COC(=O)C(C#N)=C(c1ccccc1)c1ccccc1` (stereo unspecified) the figure was 13.4 min; with `CC(=O)N(C)N(C(=O)C(=O)N(C)C)c1ccccc1`, 5.06 min.
For `CNC(C)Cc1ccc(O)c(O)c1` (stereo unspecified), the LC retention time was 2.59 min.
For the compound `CC(COc1ccccc1Cc1ccccc1)N1CCCCC1` (stereo unspecified), the LC retention time was determined as 8.32 min.
With `CC(CN(C)C)CN1c2ccccc2CCc2ccccc21` (stereo unspecified) the figure was 8.31 min.
Regarding `CNCC(O)c1ccc(O)c(O)c1` (stereo unspecified), the LC retention time came out at 1.38 min.
On to `CN1C2CCC1CC(OC(=O)c1c[nH]c3ccccc13)C2` (stereo unspecified), for which the LC retention time is 5.09 min.
In the case of `C#CC1(OC(C)=O)CCC2C3CCC4=CC(=O)CCC4C3CCC21C` (stereo unspecified), the LC retention time was determined as 10.8 min.
Consider `OC(CCN1CCCC1)(c1ccccc1)C1CCCCC1` (stereo unspecified), for which the LC retention time was determined as 7.8 min.
Turning to `CCCS(=O)(=O)c1ccc2nc(NC(=O)OC)[nH]c2c1`, the LC retention time worked out at 5.86 min.
The result for `COC1(C)CC(c2ccccc2)c2c(c3ccccc3oc2=O)O1` (stereo unspecified) reads 11.1 min; that for `CNc1nc(NC(C)C)nc(SC)n1`, 8.17 min.
In the case of `CCNC(C)C(=O)c1ccc(C)cc1` (stereo unspecified), the LC retention time is 4.74 min.
As to `CCC(NC)C(=O)c1ccccc1` (stereo unspecified), the LC retention time is 4.26 min.
With `Cc1ccc2n[nH]nc2c1` the figure was 5.83 min; with `CCCOc1ccc(S(=O)(=O)NCCC2CCCN2C)cc1-c1nc2c(CCC)nn(C)c2c(=O)[nH]1` (stereo unspecified), 7.83 min; with `CCOP(=S)(OCC)Oc1cc(-c2ccccc2)on1`, 11.3 min.
As for `CCCC(NC(C)C(=O)N1C(C(=O)O)CC2CCCCC21)C(=O)OCC` (stereo unspecified), the LC retention time was 13.2 min.
With `CC12C=CC3=C4CCC(=O)C=C4CCC3C1CCC2O` (stereo unspecified) the figure was 8.89 min; with `CCCc1nn(C)c2c(=S)nc(-c3cc(S(=O)(=O)N4CC(C)NC(C)C4)ccc3OCC)[nH]c12` (stereo unspecified), 9.91 min.
